In US8163795B2, “Chroman derivatives, medicaments and use in therapy” (Marshall Edwards, Inc., priority 2004, dated 2012):
Like-named read-outs stand apart in the source and are kept apart here.

Legend:
[1] = test system: MDA-MB-468 breast cancer cell line; experiment: Proliferation assay (MTT); type: cell-based
[2] = test system: HPAC (CRL-2119) pancreatic cancer cell line; experiment: Proliferation assay (MTT); type: cell-based, human
[3] = test system: A2058 melanoma cell line; experiment: Proliferation assay (MTT); type: cell-based; settings: Table 2.1; Melanoma A2058
[4] = test system: SKOV-3 ovarian cancer cell line; experiment: Proliferation assay (MTT); type: cell-based
[5] = test system: MM200 melanoma cell line; experiment: HMC combination with cisplatin (synergy); type: cell-based; settings: Table 8, single agent
Description: (§1) IC50 values were determined for each cell line. Cells were seeded in 96-well plates at an appropriate cell density as determined from growth kinetics analysis and cultured for 5 days in the absence and presence of the test compounds. Cell proliferation was assessed after the addition of 20 μl of 3-4,5 dimethylthiazol-2,5-diphenyl tetrazolium bromide (MTT, 2.5 mg/ml in PBS, Sigma) for 3-4 hrs at 37° C. according to manufacturer's instructions. IC50 values were calculated from semi-log plots of % of control proliferation on the y-axis against log dose on the x-axis.
3-D model analysis of the cytotoxic interaction between drug A and drug B enables the representation of predicted inhibitory effect of two drugs in combination in 3 dimensions to reveal actual regions of synergy or antagonism. The 3D synergy plots are based on a theory of “Theretical Additivity” (TA) as outlined by Kanzawa et al (Int. J. Cancer 71, 311-319 (1997)). Theoretical Additivity was calculated from the cytotoxicities of drug A and drug B as monotherapies using the following formula which assumes the drugs are mutually exclusive inhibitors: […]
The TA is calculated for each combination of drug concentrations and subtracted from the observed experimental effect for each combination to give a measurement of synergisitic action.
HMC synergy with cisplatin was assessed either in combination over 5 days exposure or in sequence (HMC→cisplatin) against the MM200 melanoma cell line. It was difficult to assess for synergisitic toxicity using a change in IC50 as a measure of synergy due to HMC toxicity as monotherapy (Table 8). […] Evidence of synergy using the HMC-cisplatin combination was further assessed using the HMC→cisplatin sequence (24 hr exposure to each compound in sequence) against the melanoma cell line MM200. Using change in IC50 to assess for synergy it was noted that HMC at concentrations of 2 μM markedly chemosensitised the MM200 cells to cisplatin by >1000 fold (Table 8). HMC induced chemosensitisation of MM200 cells to cisplatin was confirmed using 3D analysis of the data (FIG. 11B).

[6] = test system: MM200 melanoma cell line; experiment: Proliferation assay (MTT); type: cell-based
[7] = test system: DU145 (Prostate); experiment: Proliferation assay (MTT); type: cell-based
Description: (§2) All cultures were supplemented with 10% FCS (fetal calf serum CSL, Australia), penicillin (100 U/ml), streptomycin ([…]), L-glutamine (2 mM) and sodium bicarbonate (1.2 g/L), and cultured at 37° C. in a humidified atmosphere of 5% CO2. All cell lines were purchased from ATCC (Maryland, USA) except where noted.
as §1

[8] = test system: HTB-138 (Glioma); experiment: Proliferation assay (MTT); type: cell-based; settings: Table 2.1; Glioma HTB-138
Description: as §2, §1

[9] = test system: HCT-15 (Colorectal); experiment: Proliferation assay (MTT); type: cell-based; settings: Table 2.1, Colorectal HCT-15
Description: as §2, §1

[10] = test system: LNCaP (Prostate); experiment: Proliferation assay (MTT); type: cell-based; settings: Table 2.1
Description: as §2, §1

[11] = test system: HT-29 (Colorectal); experiment: Proliferation assay (MTT); type: cell-based; settings: Table 2.1, Colorectal HT-29
Description: as §2, §1

[12] = test system: PC3 prostate cancer cell line; experiment: Proliferation assay (MTT); type: cell-based; settings: Table 2.1
Description: as §2, §1

[13] = test system: NCI-H460 (Lung); experiment: Proliferation assay (MTT); type: cell-based; settings: Table 2.1, Lung NCI-H460
Description: as §2, §1

[14] = test system: MCF-7 breast cancer cell line; experiment: Proliferation assay (MTT); type: cell-based; settings: Table 2.1, Breast MCF-7
Description: as §2, §1

[15] = test system: A2780 (Ovarian); experiment: Proliferation assay (MTT); type: cell-based; settings: Table 2.1
Description: as §2, §1

[16] = test system: CP70 ovarian cancer cell line; experiment: Proliferation assay (MTT); type: cell-based
[17] = test system: Neonatal foreskin fibroblasts (NFF); experiment: Proliferation assay (MTT), normal cell toxicity; type: cell-based, Human; settings: read-out: IC50
Description: (§3) The normal cell line NFF (neonatal foreskin fibroblasts) was a sift from Dr. Peter Parsons (Queensland Institute of Medical Research). RK (rabbit kidney) cells were obtained from Miller Whalley (Macquarie University). Both cell lines were cultured in RPMI supplemented with 10% FCS(CSL, Australia), penicillin (100 U/ml), streptomycin ([…]), L-glutamine (2 mM) and sodium bicarbonate (1.2 g/L), and cultured at 37° C. in a humidified atmosphere of 5% CO2.
as §1

[18] = test system: MEL-RM melanoma cells (TRAIL sensitive); experiment: Apoptosis incidence in melanoma cells; type: cell-based
[19] = test system: IGR3 melanoma cells (Trail-resistant); experiment: Apoptosis incidence in melanoma cells; type: cell-based
[20] = test system: ME4405 melanoma cells (TRAIL sensitive); experiment: Apoptosis incidence in melanoma cells; type: cell-based
[21] = test system: Mel-AT melanoma cells (Trail +ve/Caspase 8 −ve); experiment: Apoptosis incidence in melanoma cells; type: cell-based
[22] = test system: TRAIL-sensitive and -resistant melanoma cells; experiment: Apoptosis incidence, statements over several melanoma cell lines; type: cell-based; settings: 4 μM, 24 hr exposure, DHE-treated cells
[23] = test system: MM96L melanoma cell line; experiment: Proliferation assay (MTT); type: cell-based; settings: Homo sapiens, Table 15
Description: as §2, §1

[24] = test system: RPMI-8226 (Leukemic); experiment: Proliferation assay (MTT); type: cell-based; settings: Homo sapiens; Table 2.1; Leukemic RPMI-8226
Description: as §2, §1

[25] = test system: SKMe128 melanoma cell line; experiment: Proliferation assay (MTT); type: cell-based; settings: Table 15
Description: as §2, §1

[26] = test system: NCI-H23 (Lung); experiment: Proliferation assay (MTT); type: cell-based; settings: Homo sapiens, Table 2.1
Description: as §2, §1

[27] = test system: CCRF-CEM (Leukemic); experiment: Proliferation assay (MTT); type: cell-based; settings: Homo sapiens; Table 2.1; Leukemic CCRF-CEM
Description: as §2, §1

[28] = test system: rabbit kidney cells (RK); experiment: Proliferation assay (MTT), normal cell toxicity; type: cell-based; settings: read-out: IC50
Description: as §3, §1

[29] = test system: normal fibroblasts (MRC-5); experiment: Apoptosis in normal fibroblasts; type: cell-based; settings: same concentration (8 μM) and exposure times (24 and 48 hr) as melanoma cells
Description: Studies were conducted on normal fibroblasts (MRC-5) and TRAIL-sensitive melanoma cells (ME4405 and MEL-RM) using 8 μM of either DHE, or HMC over 24 and 48 hr of exposure (FIG. 9).

[30] = DHE and HMC pharmacokinetics, oral, mice; type: in vivo, female BALB/c mice; settings: for Free plasma concentration: 50 mg/kg p.o.
Description: HMC and DHE were prepared as homogenous suspensions in 1% CMC (m:v, water). Both formulations were delivered orally by gavage to female BALB/c mice at a dosage of 50 mg/kg. Three animals were allocated to each timepoint (15 min, 30 min, 1 hr, 4 hr and 24 hr). At each respective timepoint, animals were euthanased by cervical dislocation and blood collected. Free HMC was analysed by mass spectroscopy.

[31] = Table 1, Neonatal Foreskin Fibroblasts (Human, NFF)

Compound: N.N.[Cl][Pt][Cl] [Cisplatin, cisplatin, reference compound]
- IC50 ([1]; Table 2.1, Breast MDA-MB-468, read-out: IC50): 0.58 µM
- IC50 ([2]; Table 2.1, Pancreatic CRL-2119, read-out: IC50): 9.36 µM
- IC50 [3]: 5.73 ± 2.3 µM
- IC50 ([4]; Table 2.1, Ovarian SKOV-3, read-out: IC50): 5.4 µM
- IC50 ([5]; 24 hr exposure, read-out: IC50, 24 hr (monotherapy)): 6.32 µM
- IC50 ([5]; 5 days exposure, read-out: IC50, Combined (monotherapy)): 8.82 µM
- IC50 ([6]; Table 2.1, Melanoma MM200, read-out: IC50): 8.3 ± 0.7 µM
- IC50 ([7]; Table 2.1): 2.07 µM
- IC50 [8]: 42.3 µM
- IC50 [9]: 130 ± 39 µM
- IC50 [10]: > 10 µM
- IC50 [11]: 22.7 ± 35 µM
- IC50 [12]: 2.11 µM
- IC50 [13]: 22.3 µM
- IC50 [14]: 3.69 µM
- IC50 [15]: 2.1 µM
- IC50 ([16]; Table 2.1, Ovarian CP70, read-out: IC50): 10.3 µM
- IC50 [17, 31]: 9.85 ± 5 µM

Compound: Oc1ccc(C2=Cc3ccc(O)cc3OC2)cc1 [DHE, dehydroequol, reference compound]
- IC50 ([1]; Homo sapiens, MDA-MB-468): 7.9 ± 3.5 µM
- IC50 ([2]; Homo sapiens, HPAC): 56.6 ± 16.8 µM
- Percent Apoptosis ([18]; 24 hr exposure, 1 uM): 0%
- Percent Apoptosis ([18]; 24 hr exposure, 2 uM): 0%
- Percent Apoptosis ([18]; 24 hr exposure, 4 uM): 0%
- Percent Apoptosis ([18]; 24 hr exposure, 8 uM): 2%
- Percent Apoptosis ([18]; 24 hr exposure, 20 uM): 5%
- Percent Apoptosis ([18]; 48 hr exposure, 1 uM): 1%
- Percent Apoptosis ([18]; 48 hr exposure, 2 uM): 1.5%
- Percent Apoptosis ([18]; 48 hr exposure, 4 uM): 3%
- Percent Apoptosis ([18]; 48 hr exposure, 8 uM): 10%
- Percent Apoptosis ([18]; 48 hr exposure, 20 uM): 12%
- IC50 ([4]; Homo sapiens, SK-OV-3): 21.8 ± 4.65 µM
- Percent Apoptosis ([19]; 24 hr exposure, 1 uM): 0%
- Percent Apoptosis ([19]; 24 hr exposure, 2 uM): 0%
- Percent Apoptosis ([19]; 24 hr exposure, 4 uM): 1%
- Percent Apoptosis ([19]; 24 hr exposure, 8 uM): 3%
- Percent Apoptosis ([19]; 24 hr exposure, 20 uM): 4%
- Percent Apoptosis ([19]; 48 hr exposure, 1 uM): 1%
- Percent Apoptosis ([19]; 48 hr exposure, 2 uM): 1%
- Percent Apoptosis ([19]; 48 hr exposure, 4 uM): 2%
- Percent Apoptosis ([19]; 48 hr exposure, 8 uM): 8%
- Percent Apoptosis ([19]; 48 hr exposure, 20 uM): 8%
- Percent Apoptosis ([20]; 24 hr exposure, 1 uM): 0%
- Percent Apoptosis ([20]; 24 hr exposure, 2 uM): 2%
- Percent Apoptosis ([20]; 24 hr exposure, 4 uM): 2%
- Percent Apoptosis ([20]; 24 hr exposure, 8 uM): 6%
- Percent Apoptosis ([20]; 24 hr exposure, 20 uM): 11%
- Percent Apoptosis ([20]; 48 hr exposure, 1 uM): 1%
- Percent Apoptosis ([20]; 48 hr exposure, 2 uM): 3%
- Percent Apoptosis ([20]; 48 hr exposure, 4 uM): 14%
- Percent Apoptosis ([20]; 48 hr exposure, 8 uM): 40%
- Percent Apoptosis ([20]; 48 hr exposure, 20 uM): 35%
- Percent Apoptosis ([21]; 24 hr exposure, 1 uM): 0%
- Percent Apoptosis ([21]; 24 hr exposure, 2 uM): 3%
- Percent Apoptosis ([21]; 24 hr exposure, 4 uM): 4%
- Percent Apoptosis ([21]; 24 hr exposure, 8 uM): 8%
- Percent Apoptosis ([21]; 24 hr exposure, 20 uM): 10%
- Percent Apoptosis ([21]; 48 hr exposure, 1 uM): 1.5%
- Percent Apoptosis ([21]; 48 hr exposure, 2 uM): 5%
- Percent Apoptosis ([21]; 48 hr exposure, 4 uM): 15%
- Percent Apoptosis ([21]; 48 hr exposure, 8 uM): 43%
- Percent Apoptosis ([21]; 48 hr exposure, 20 uM): 40%
- incidence of apoptosis [22]: 0-1%
- IC50 ([6]; Table 2.1, Melanoma MM200): 2.9 µM
- IC50 ([6]; Table 15, melanoma MM200, monotherapy): 4.77 ± 4 µM
- IC50 ([7]; Homo sapiens, DU-145, Table 2.1): 5.95 ± 1.5 µM
- IC50 [8]: 7.35 ± 0.89 µM
- IC50 ([9]; Homo sapiens): 24.4 ± 12.6 µM
- IC50 ([10]; Homo sapiens): 4.8 ± 3.8 µM
- IC50 [23]: 4.76 µM
- IC50 ([11]; Homo sapiens): 50.5 ± 21.9 µM
- IC50 [12]: 9.09 ± 8.12 µM
- IC50 ([13]; Homo sapiens): 10.6 ± 3.8 µM
- IC50 ([14]; Homo sapiens, MCF7): 21.5 ± 13.2 µM
- IC50 [24]: 3.72 ± 0.08 µM
- IC50 ([15]; Homo sapiens): 1.7 ± 0.61 µM
- IC50 [25]: 4.4 µM
- IC50 [26]: 8.75 ± 7.2 µM
- IC50 [27]: 1.7 ± 0.68 µM
- IC50 ([28]; Oryctolagus cuniculus, rabbit kidney cells): > 150 µM
- IC50 ([28]; Table 1, Rabbit Kidney): > 150 µM
- IC50 [16]: 1.69 ± 0.62 µM
- induction of apoptosis in normal fibroblasts [29]: do not induce apoptosis
- IC50 ([17]; Homo sapiens, Fibroblast, NFF): > 150 µM
- IC50 [17, 31]: > 150 µM
- Free plasma concentration ([30]; Time 0.25): 3300 ± 130 nM
- Free plasma concentration ([30]; Time 0.5): 2900 ± 50 nM
- Free plasma concentration ([30]; Time 1): 1500 ± 110 nM
- Free plasma concentration ([30]; Time 4): 1300 ± 70 nM
- Free plasma concentration ([30]; Time 24): 150 ± 40 nM
- maximum plasma concentration of the free form ([30]; oral 50 mg/kg): 3.3 µM
- ratio of free:total ([30]; oral 50 mg/kg): 0.64
- time of maximum free concentration ([30]; oral 50 mg/kg): 15 min
